Publication PMC5655360, “Establishment of a novel hepatocyte model that expresses four cytochrome P450 genes stably via mammalian-derived artificial chromosome for pharmacokinetics and toxicity studies” (PLoS ONE, 2017)
Where two headings read alike, the source gives them in different places.

What was measured:
CYP3A4 [1] = target: T1, CYP3A4 (Homo sapiens, UniProt P08684)
Description: (§1) Measurement of the activity of all four CYPs was conducted using the P450-Glo™ assay (Promega, Japan), according to the manufacturer’s instructions. Briefly, cells were seeded in a 96-well plate at a density of 1×10^4 cells/well. Twenty-four hours later, test compounds and the luminescent substrate included in the kit were added into the culture media. Following 1 hour of incubation, the detection reagent was added, and the luminescence generated by the metabolic substrate within the culture media was measured using an Infinite F500 plate reader ([…]).
(§2) Curve fitting was performed using the SigmaPlot 13.0 statistical software (Systat Software, IL, USA). […] Data were presented as means ± S.D. Statistical analyses were carried out using unpaired Student’s t test. The level of statistical significance was set at P< 0.05.
(§3) Twenty compounds that are known to inhibit CYPs were used to calculate IC50 values in TC-HepG2 cells, which were then compared to those in primary human hepatocytes.
(§4) Briefly, CYP inhibitors were added to the culture media at the same time as the metabolic substrate to test direct inhibition (DI) or 1 hour prior to the addition of the metabolic substrate to test time-dependent inhibition (TDI).
Target sequence in this assay (P08684 2-503): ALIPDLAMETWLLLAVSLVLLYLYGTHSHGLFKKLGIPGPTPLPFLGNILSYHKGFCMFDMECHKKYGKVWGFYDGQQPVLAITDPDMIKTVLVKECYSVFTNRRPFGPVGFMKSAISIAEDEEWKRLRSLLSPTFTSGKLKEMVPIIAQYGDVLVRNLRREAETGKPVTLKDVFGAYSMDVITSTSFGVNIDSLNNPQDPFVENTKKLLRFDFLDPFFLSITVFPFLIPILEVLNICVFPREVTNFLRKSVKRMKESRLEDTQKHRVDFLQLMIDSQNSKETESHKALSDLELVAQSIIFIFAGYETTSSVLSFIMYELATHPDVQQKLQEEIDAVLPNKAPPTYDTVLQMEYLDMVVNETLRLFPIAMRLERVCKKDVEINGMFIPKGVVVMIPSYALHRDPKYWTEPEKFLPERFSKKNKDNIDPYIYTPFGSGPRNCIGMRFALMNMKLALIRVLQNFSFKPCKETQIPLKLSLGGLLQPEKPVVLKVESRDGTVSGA

CYP3A4 [2] = target: T1, CYP3A4; experiment: in vitro
Description: as §1
Fig 6G–6I show the plots to determine the rate of inactivation (kobs) for the three inhibitors as depicted in Fig 6A–6F.
Macrolides (0–100 μM/L) were preincubated at 37°C for 0–30 min, and the reaction was initiated by the addition of CYP3A-specific substrate for 30 min. (G—I) Apparent inactivation rate (kobs) was estimated graphically from the slope of the plot for the natural log enzyme activity remaining after preincubation against preincubation time and was corrected for any loss of activity in the absence of the inhibitor. kinact and Ki,app values were obtained from a double reciprocal plot of kobs against inhibitor concentration. Closed circles represent TC-HepG2 cells, and opened circles represent parental HepG2 cells. Each symbol represents the average of triplicate determinations.

CYP2D6 [3] = target: T2, CYP2D6 (Homo sapiens, UniProt P10635); experiment: cell-based
Description: as §1, §2, §3, §4

CYP2D6 [4] = target: T2, CYP2D6; experiment: cell-based; assay type: in vitro ADME; parameters: endogenous in cells; host or cells: primary human hepatocytes; settings: primary human hepatocytes; mean ± S.D. of triplicate
CYP2C19 [5] = target: T3, CYP2C19 (Homo sapiens, UniProt P33261); experiment: cell-based
Description: as §1, §2, §3, §4

CYP2C19 [6] = target: T3, CYP2C19; experiment: cell-based; assay type: in vitro ADME; parameters: endogenous in cells; host or cells: primary human hepatocytes; settings: primary human hepatocytes; mean ± S.D. of triplicate
CYP2C9 = CYP2C9 (Homo sapiens, UniProt P11712); settings: TC-HepG2 cells, Fig 5
Description: as §1, §2, §3, §4

T2 sequence (P10635 whole entry): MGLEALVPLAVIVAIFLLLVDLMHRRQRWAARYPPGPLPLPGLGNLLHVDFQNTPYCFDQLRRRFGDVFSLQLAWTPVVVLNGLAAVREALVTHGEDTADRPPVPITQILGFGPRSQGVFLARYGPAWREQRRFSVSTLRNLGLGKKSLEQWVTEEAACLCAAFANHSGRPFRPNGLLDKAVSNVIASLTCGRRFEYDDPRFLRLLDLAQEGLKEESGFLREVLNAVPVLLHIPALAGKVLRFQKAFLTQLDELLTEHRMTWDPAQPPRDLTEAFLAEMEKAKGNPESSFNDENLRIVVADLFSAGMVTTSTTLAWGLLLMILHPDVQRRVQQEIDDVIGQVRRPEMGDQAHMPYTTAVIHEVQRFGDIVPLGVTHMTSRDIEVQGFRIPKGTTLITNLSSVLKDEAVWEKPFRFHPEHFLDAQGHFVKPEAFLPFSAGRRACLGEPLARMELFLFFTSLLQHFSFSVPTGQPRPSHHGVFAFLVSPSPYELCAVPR
T3 sequence (P33261 whole entry): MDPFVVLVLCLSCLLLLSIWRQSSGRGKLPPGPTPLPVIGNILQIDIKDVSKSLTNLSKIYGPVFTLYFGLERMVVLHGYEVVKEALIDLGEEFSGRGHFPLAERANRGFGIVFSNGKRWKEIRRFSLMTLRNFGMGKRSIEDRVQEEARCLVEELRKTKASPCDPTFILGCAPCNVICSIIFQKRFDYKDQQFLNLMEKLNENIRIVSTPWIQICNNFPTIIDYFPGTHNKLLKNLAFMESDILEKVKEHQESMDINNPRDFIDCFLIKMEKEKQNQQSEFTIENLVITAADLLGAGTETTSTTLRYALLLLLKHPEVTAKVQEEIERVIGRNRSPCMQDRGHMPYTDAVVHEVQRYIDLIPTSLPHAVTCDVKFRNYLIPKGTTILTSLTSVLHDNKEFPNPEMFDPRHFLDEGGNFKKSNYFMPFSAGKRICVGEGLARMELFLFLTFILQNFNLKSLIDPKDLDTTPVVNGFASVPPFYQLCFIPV
CYP2C9, sequence (P11712 whole entry): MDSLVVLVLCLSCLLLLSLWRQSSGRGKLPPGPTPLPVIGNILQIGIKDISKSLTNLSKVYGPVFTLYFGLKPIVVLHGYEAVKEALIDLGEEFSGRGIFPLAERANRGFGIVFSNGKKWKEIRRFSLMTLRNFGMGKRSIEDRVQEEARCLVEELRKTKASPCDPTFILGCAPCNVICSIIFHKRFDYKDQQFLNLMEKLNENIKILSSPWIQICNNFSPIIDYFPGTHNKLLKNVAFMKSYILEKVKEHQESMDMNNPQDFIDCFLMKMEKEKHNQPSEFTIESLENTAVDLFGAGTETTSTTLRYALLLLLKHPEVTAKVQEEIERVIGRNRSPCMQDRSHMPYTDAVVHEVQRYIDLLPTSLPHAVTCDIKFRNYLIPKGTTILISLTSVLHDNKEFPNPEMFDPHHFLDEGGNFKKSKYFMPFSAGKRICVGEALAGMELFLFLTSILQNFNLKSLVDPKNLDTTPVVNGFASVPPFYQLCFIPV

CC[C@H]1OC(=O)[C@H](C)[C@@H](O[C@H]2C[C@@](C)(OC)[C@@H](O)[C@H](C)O2)[C@H](C)[C@@H](O[C@@H]2O[C@H](C)C[C@H](N(C)C)[C@H]2O)[C@](C)(OC)C[C@@H](C)C(=O)[C@H](C)[C@@H](O)[C@]1(C)O [Clarithromycin]
inhibitory effect with 1 hour preincubation (TDI) compared with simultaneous addition of inhibitor and substrate (DI), CYP3A4 (CYP3A4 [1]; TC-HepG2 cells, Fig 5): higher
inhibitory effect on CYP3A4 metabolic activity (CYP3A4 [1]; three TC-HepG2 clones (Fig 3C)): concentration-dependent inhibitory effect
suppression of the generation of metabolites of the luminescent CYP3A4 substrate (CYP3A4 [2]; 0-100 μM added 10, 20 or 30 min before substrate (Fig 6)): time- and concentration-dependent manner
KI (inactivation) (CYP3A4 [2]; hepatocytes): 16 ± 4.3 µM
KI (inactivation) (CYP3A4 [2]; human): 3.76 ± 0.42 µM

C#C[C@]1(O)CC[C@H]2[C@@H]3CCc4cc(O)ccc4[C@H]3CC[C@@]21C [Ethinylestradiol]
inhibitory effect with 1 hour preincubation (TDI) compared with simultaneous addition of inhibitor and substrate (DI), CYP3A4 (CYP3A4 [1]; TC-HepG2 cells, Fig 5): higher

Fc1ccc([C@@H]2CCNC[C@H]2COc2ccc3c(c2)OCO3)cc1 [Paroxetine]
inhibitory effect with 1 hour preincubation (TDI) compared with simultaneous addition of inhibitor and substrate (DI), CYP2D6 (CYP2D6 [3]): higher

CC[C@H]1OC(=O)[C@H](C)[C@@H](O[C@H]2C[C@@](C)(OC)[C@@H](O)[C@H](C)O2)[C@H](C)[C@@H](O[C@@H]2O[C@H](C)C[C@H](N(C)C)[C@H]2O)[C@](C)(O)C[C@@H](C)/C(=N\OCOCCOC)[C@H](C)[C@@H](O)[C@]1(C)O [Roxithromycin]
inhibitory effect with 1 hour preincubation (TDI) compared with simultaneous addition of inhibitor and substrate (DI), CYP3A4 (CYP3A4 [1]): higher
suppression of the generation of metabolites of the luminescent CYP3A4 substrate (CYP3A4 [2]): time- and concentration-dependent manner
KI (inactivation) (CYP3A4 [2]; hepatocytes): 13.1 ± 4.7 µM
kinact (CYP3A4 [2]; hepatocytes): 0.000161 s⁻¹
KI (inactivation) (CYP3A4 [2]; human): 4.6 ± 0.6 µM
kinact (CYP3A4 [2]; human): 0.000431 s⁻¹

CN(C/C=C/C#CC(C)(C)C)Cc1cccc2ccccc12 [Terbinafine]
IC50 (CYP2D6 [3]): 0.0021 ± 0.0002 µM
IC50 (CYP2D6 [4]): 0.0099 ± 0.0002 µM

O=C(O)COc1ccc(C(=O)c2cccs2)c(Cl)c1Cl [Tienilic acid]
IC50 (CYP2C19 [5]): 5.7 ± 1.7 µM
IC50 (CYP2C19 [6]): 0.55 ± 0.02 µM
inhibitory effect with 1 hour preincubation (TDI) compared with simultaneous addition of inhibitor and substrate (DI), CYP2C9 (CYP2C9): higher

COc1cc2c(c3oc4cccc(O)c4c(=O)c13)[C@@H]1C=CO[C@@H]1O2 [sterigmatocystin]
cell survival rate in TC-HepG2 cells compared with parental HepG2 cells (TC-HepG2 cells): significantly lower
survival of TC-HepG2 cells (TC-HepG2 cells): concentration-dependent decrease
toxicity in parental HepG2 cells lacking CYPs (HepG2 cells): neither compound was toxic

aflatoxin B1
IC50 in TC-HepG2 cells compared with HepG2 cells (TC-HepG2 cells): lower
toxicity in parental HepG2 cells lacking CYPs (HepG2 cells): neither compound was toxic
